What was measured:
Assay in all cases: relative viability vs DMSO control (72 h) (fraction); higher = more viable cells
G401 = tested on: G401
How it was run: (§1)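 Sarcoma cell lines went into 384-well plates at densities chosen to reach 80–90% confluence. After 24 h, each well received 2.5 µl of serially diluted compound, with source plates running from 10 mM to 0.0002 mM, and the plates were kept 72 h at 37 °C, 5% CO2, alongside 0.1% DMSO vehicle and a 5 µM positive control. Relative viability was derived from ATPLite readings as percent growth and averaged over up to triplicate wells. The data were then rescaled so that 1 stands for full and 0 for none.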

SK-ES-1 = tested on: SK-ES-1
How it was run: as §1

SYO-1 = tested on: SYO-1
How it was run: as §1

HS729 = tested on: HS729
How it was run: as §1

SW872 = tested on: SW872
How it was run: as §1

SK-LMS-1 = tested on: SK-LMS-1
How it was run: as §1

RD = tested on: RD
How it was run: as §1

VA-ES-BJ = tested on: VA-ES-BJ
How it was run: as §1

MES-SA = tested on: MES-SA
How it was run: as §1

SW684 = tested on: SW684
How it was run: as §1

KHOS-NP = tested on: KHOS-NP
How it was run: as §1

A204 = tested on: A204
How it was run: as §1

COc1cc2ncnc(Nc3cccc(Cl)c3F)c2cc1OC(=O)N1CCN(C)C[C@H]1C [AZD-3759]
Settings	relative viability
A204, 0.00017 µM	1.051
A204, 0.00051 µM	1.1
A204, 0.00152 µM	1.09
A204, 0.00457 µM	1.08
A204, 0.01372 µM	1.05
A204, 0.04115 µM	1.08
A204, 0.1235 µM	1.04
A204, 0.3704 µM	1.04
A204, 1.111 µM	1.03
A204, 3.333 µM	0.954
A204, 10 µM	0.883
G401, 0.00017 µM	1.03
G401, 0.00051 µM	1.06
G401, 0.00152 µM	1.04
G401, 0.00457 µM	1.01
G401, 0.01372 µM	1.02
G401, 0.04115 µM	1.02
G401, 0.1235 µM	1.04
G401, 0.3704 µM	1.04
G401, 1.111 µM	1
G401, 3.333 µM	0.985
G401, 10 µM	0.939
HS729, 0.00017 µM	1.05
HS729, 0.00051 µM	0.958
HS729, 0.00152 µM	0.934
HS729, 0.00457 µM	0.971
HS729, 0.01372 µM	0.966
HS729, 0.04115 µM	0.875
HS729, 0.1235 µM	0.94
HS729, 0.3704 µM	0.878
HS729, 1.111 µM	0.856
HS729, 3.333 µM	0.812
HS729, 10 µM	0.781
KHOS-NP, 0.00017 µM	1.1
KHOS-NP, 0.00051 µM	1.11
KHOS-NP, 0.00152 µM	1.105
KHOS-NP, 0.00457 µM	1.1
KHOS-NP, 0.01372 µM	1.109
KHOS-NP, 0.04115 µM	1.07
KHOS-NP, 0.1235 µM	1.09
KHOS-NP, 0.3704 µM	1.04
KHOS-NP, 1.111 µM	1.07
KHOS-NP, 3.333 µM	0.998
KHOS-NP, 10 µM	1.02
MES-SA, 0.00017 µM	0.938
MES-SA, 0.00051 µM	0.921
MES-SA, 0.00152 µM	0.953
MES-SA, 0.00457 µM	0.917
MES-SA, 0.01372 µM	0.94
MES-SA, 0.04115 µM	0.929
MES-SA, 0.1235 µM	0.921
MES-SA, 0.3704 µM	0.891
MES-SA, 1.111 µM	0.902
MES-SA, 3.333 µM	0.8425
MES-SA, 10 µM	0.777
RD, 0.00017 µM	1.04
RD, 0.00051 µM	1.1
RD, 0.00152 µM	1.1
RD, 0.00457 µM	1.1
RD, 0.01372 µM	1.11
RD, 0.04115 µM	1.09
RD, 0.1235 µM	1.09
RD, 0.3704 µM	1.12
RD, 1.111 µM	1.08
RD, 3.333 µM	1.06
RD, 10 µM	0.97
SK-ES-1, 0.00017 µM	1.09
SK-ES-1, 0.00051 µM	0.999
SK-ES-1, 0.00152 µM	1.06
SK-ES-1, 0.00457 µM	1.01
SK-ES-1, 0.01372 µM	1.06
SK-ES-1, 0.04115 µM	1.06
SK-ES-1, 0.1235 µM	0.978
SK-ES-1, 0.3704 µM	0.999
SK-ES-1, 1.111 µM	1.02
SK-ES-1, 3.333 µM	0.908
SK-ES-1, 10 µM	0.83
SK-LMS-1, 0.00017 µM	1.14
SK-LMS-1, 0.00051 µM	1.12
SK-LMS-1, 0.00152 µM	1.08
SK-LMS-1, 0.00457 µM	1.09
SK-LMS-1, 0.01372 µM	1.09
SK-LMS-1, 0.04115 µM	1.09
SK-LMS-1, 0.1235 µM	1.09
SK-LMS-1, 0.3704 µM	1.088
SK-LMS-1, 1.111 µM	1.07
SK-LMS-1, 3.333 µM	1.02
SK-LMS-1, 10 µM	1.05
SW684, 0.00017 µM	1.14
SW684, 0.00051 µM	1.16
SW684, 0.00152 µM	1.16
SW684, 0.00457 µM	1.13
SW684, 0.01372 µM	1.15
SW684, 0.04115 µM	1.12
SW684, 0.1235 µM	1.11
SW684, 0.3704 µM	1.14
SW684, 1.111 µM	1.16
SW684, 3.333 µM	1.1
SW684, 10 µM	1.05
SW872, 0.00017 µM	1.07
SW872, 0.00051 µM	1.1
SW872, 0.00152 µM	1.06
SW872, 0.00457 µM	1.058
SW872, 0.01372 µM	1.032
SW872, 0.04115 µM	1.05
SW872, 0.1235 µM	1.04
SW872, 0.3704 µM	1.02
SW872, 1.111 µM	1.04
SW872, 3.333 µM	0.9635
SW872, 10 µM	0.828
SYO-1, 0.00017 µM	1.03
SYO-1, 0.00051 µM	0.995
SYO-1, 0.00152 µM	0.987
SYO-1, 0.00457 µM	0.977
SYO-1, 0.01372 µM	0.951
SYO-1, 0.04115 µM	0.947
SYO-1, 0.1235 µM	0.891
SYO-1, 0.3704 µM	0.896
SYO-1, 1.111 µM	0.851
SYO-1, 3.333 µM	0.783
SYO-1, 10 µM	0.614
VA-ES-BJ, 0.00017 µM	1.03
VA-ES-BJ, 0.00051 µM	1.05
VA-ES-BJ, 0.00152 µM	1.04
VA-ES-BJ, 0.00457 µM	1.02
VA-ES-BJ, 0.01372 µM	1.02
VA-ES-BJ, 0.04115 µM	0.992
VA-ES-BJ, 0.1235 µM	0.986
VA-ES-BJ, 0.3704 µM	0.949
VA-ES-BJ, 1.111 µM	0.975
VA-ES-BJ, 3.333 µM	0.972
VA-ES-BJ, 10 µM	0.952

Source: the supplement of paper PMC10883282
